Patent publication US20250057864A1, “COMPOSITION FOR IMPROVING EXERCISE PERFORMANCE COMPRISING GYPENOSIDE COMPOUND AS ACTIVE INGREDIENT” (BTC CORPORATION, priority 2022, published 2025)

Assays:
C2C12 cells = experiment: Intracellular ROS production in C2C12 cells (DCF-DA); assay type: cell-based, mice; settings: oxidative stress by 50 μM TBHP, 1 h pretreatment with test substance
Experimental: C2C12 cells were dispensed into a 96-well plate at 1×10^4 cells/well and stabilized for 24 hours. Subsequently, the cells were cultured for 1 hour after exchanging with the culture medium with the myocyte differentiation medium containing each test substance. After 1 hour, the cells were washed with PBS and cultured further for 3 hours with a culture medium containing 50 μM tert-butyl hydrogen peroxide (TBHP), and the ROS level in the cells was measured using a DCF-DA assay kit (Abcam) according to the manufacturer's method.
In order to investigate the effect of each of the compositions according to Examples 1 to 4 on ROS production in C2C12 cells, ROS production was measured using 2′,7′-dichlorofluorescin diacetate (DCF-DA). DCF-DA was measured using the principle that it is oxidized by ROS in cells and is converted to DCF, which emits fluorescence.

[1] = system: p-AMPK, p-Sirt1, p-p38, p-Nrf2 in C2C12 cells; experiment: Western blot of proteins related with PGC-1α activation in C2C12 cells; assay type: cell-based, mice; settings: C2C12, 0.36 μg/mL (Cr 5 μg/mL), control G1 = 1.00
Experimental: C2C12 cells were dispensed into a 6-well plate at 2×10^5 cells/well and stabilized for 24 hours. In order to investigate the effect of each test substance on muscle cell differentiation, each test substance was added to the myocyte differentiation medium. The cells were cultured for 4 days (mRNA analysis) or 7 days (protein analysis) after exchanging the cell culture medium with the myocyte differentiation medium treated with each test substance, as shown in Table 2.
C2C12 cells were dispensed into a 6-well plate at 2×10^5 cells/well and stabilized for 24 hours. The cells were cultured for 7 days after exchanging the culture medium with a myocyte differentiation medium containing the test substance. After the induction of differentiation for 7 days, the cells were homogenized by adding a lysis buffer (20 mmol/L HEPES, pH 7.5, 150 mmol/L NaCl, 1% Triton X-100, 1 mmol/L EDTA, 1 mmol/L EGTA, 100 mmol/L NaF, 10 mmol/L sodium pyrophosphate, 1 mmol/L Na3VO4, 20 μg/mL aprotinin, 10 μg/mL antipain, 10 μg/mL leupeptin, 80 μg/mL benzamidine HCl, 0.2 mmol/L PMSF) and a total cell lysate was obtained through centrifugation. The protein quantity of the total cell lysate was measured using a BCA protein assay kit (Thermo Scientific). The total cell lysate (50 μg) was separated by 10% sodium dodecyl sulfate polyacrylamide gel electrophoresis (SDS-PAGE) and then transferred to a polyvinylidene difluoride membrane (Milipore). The membrane was blocked for 1 hour in 5% skim milk-TBST (20 mmol/L Tris·HCl, pH 7.5, 150 mmol/L NaCl, 0.1% Tween 20) and then incubated for 16 hours at 4° C. or for 1 hour at room temperature after adding antibodies. Thereafter, horseradish peroxidase (HRP)-linked anti-rabbit IgG or HRP-linked anti-mouse IgG was added and the mixture was stirred for 1 hour. The detected protein bands were visualized by enhanced chemiluminescence using a Luminata™ Forte Western HRP substrate (Millipore). The level of protein expression was quantified using the ImageQuant™ LAS 500 imaging system (GE Healthcare Bio-Sciences AB).
The result of western blot analysis conducted using the total cell lysate obtained by treating with the test substance to investigate the effect of the test substance on the changes in proteins associated with PGC-1α activation is shown in Table 6.
Based on the western blot analysis result, the activity of each protein was evaluated from the ratio of activation.

With `O=C(O)c1ccc2c3c1cccc3c(=O)n1c3ccccc3nc21` [STO] the “ROS production (fluorescence intensity)” value (C2C12 cells) was 33.97±2.22 fluorescence intensity, the p-AMPK/AMPK ratio [1] was “significantly inhibited” and the p-Nrf2/Nrf2 ratio [1] was “significantly inhibited”. For the same molecule, the p-p38/p38 ratio [1] was “significantly inhibited”.
